# Reference: patent US20260248734A1, “COMPOSITIONS AND METHODS FOR TREATING METABOLIC DISEASES/DISORDERS” (priority 2023, published 2026)
# B1: CO3A1: Collagen 3A1 recombinant protein (R&D Systems) coated on culture plates (protein, UniProt P02461 154-1221, looked up)
# Collagen alpha-1(III) chain: QYDSYDVKSGVAVGGLAGYPGPAGPPGPPGPPGTSGHPGSPGSPGYQGPPGEPGQAGPSGPPGPPGAIGPSGPAGKDGESGRPGRPGERGLPGPPGIKGPAGIPGFPGMKGHRGFDGRNGEKGETGAPGLKGENGLPGENGAPGPMGPRGAPGERGRPGLPGAAGARGNDGARGSDGQPGPPGPPGTAGFPGSPGAKGEVGPAGSPGSNGAPGQRGEPGPQGHAGAQGPPGPPGINGSPGGKGEMGPAGIPGAPGLMGARGPPGPAGANGAPGLRGGAGEPGKNGAKGEPGPRGERGEAGIPGVPGAKGEDGKDGSPGEPGANGLPGAAGERGAPGFRGPAGPNGIPGEKGPAGERGAPGPAGPRGAAGEPGRDGVPGGPGMRGMPGSPGGPGSDGKPGPPGSQGESGRPGPPGPSGPRGQPGVMGFPGPKGNDGAPGKNGERGGPGGPGPQGPPGKNGETGPQGPPGPTGPGGDKGDTGPPGPQGLQGLPGTGGPPGENGKPGEPGPKGDAGAPGAPGGKGDAGAPGERGPPGLAGAPGLRGGAGPPGPEGGKGAAGPPGPPGAAGTPGLQGMPGERGGLGSPGPKGDKGEPGGPGADGVPGKDGPRGPTGPIGPPGPAGQPGDKGEGGAPGLPGIAGPRGSPGERGETGPPGPAGFPGAPGQNGEPGGKGERGAPGEKGEGGPPGVAGPPGGSGPAGPPGPQGVKGERGSPGGPGAAGFPGARGLPGPPGSNGNPGPPGPSGSPGKDGPPGPAGNTGAPGSPGVSGPKGDAGQPGEKGSPGAQGPPGAPGPLGIAGITGARGLAGPPGMPGPRGSPGPQGVKGESGKPGANGLSGERGPPGPQGLPGLAGTAGEPGRDGNPGSDGLPGRDGSPGGKGDRGENGSPGAPGAPGHPGPPGPVGPAGKSGDRGESGPAGPAGAPGPAGSRGAPGPQGPRGDKGETGERGAAGIKGHRGFPGNPGAPGSPGPAGQQGAIGSPGPAGPRGPVGPSGPPGKDGTSGHPGPIGPPGPRGNRGERGSEGSPGHPGQPGPPGPPGAPGPCCGGVGAAAIAGIGGEKAGGFAPYYG
# What was measured:
# [1] = system: differentiated human adipocytes; assay: Thermogenic gene expression in human adipocytes in vitro by real-time PCR; format: cell-based
# Method: RNA from iWAT tissue and cells was isolated and purified using a Qiagen Rneasy Mini Kit (Valencia, CA) according to manufacturer guidelines. mRNA concentrations were measured using a Take3 Micro-Volume Plate (BioTek, Winooski, VT), then normalized to 150 ng of mRNA for conversion to cDNA. cDNA was synthetized using random hexamer primers and an iScript cDNA-synthesis kit (Biorad). The quantitative RT-PCR reactions were performed using the So Advanced™ Universal SYBER Green Supermix kit (Biorad) in a CFX96 Touch Real-Time PCR Detection System (BioRad, Hercules, CA). Fold expression levels were calculated using the […]. Transcript levels were normalized to 18S ribosomal RNA levels in all experiments. Primer (Table 1) specificity was tested by assessing the melting curve.
# [2] = system: adipose derived stem cells (ASCs) isolated from WT SubQ WAT; assay: Beige differentiation of ASCs on ECM protein coated surfaces, beige marker expression by RT-PCR; format: cell-based, mice; conditions: for reduction in UCP1 relative to uncoated surfaces: ASCs beige-differentiated on coated surface; for COX7A1 expression: differentiated cells on coated surface
# Method: Immunohistochemistry. SubQ fat was harvested from animals using sterile techniques, cut into small pieces and fixed in 4% paraformaldehyde for 24 hours at 4 degrees. Tissue pieces were then washed with phosphate buffered saline (PBS), permeabilized with 0.5% triton in PBS and blocked with 10% donkey serum; followed by incubation with either 1) ITA7 antibody (1:100, Novus Biologics NBP1-86,118) and Griffonia simplicifolia isolectin conjugated with Rhodamine to labels endothelial cells, or 2) ITA7 antibody and CD68 antibody (1:100, Santa Cruz sc-70761) to label macrophages for 48 hours at 4 degrees. After washes (3×15 minutes), the tissues were incubated with second antibodies (Alexa Fluor 647 Donkey Anti-Rabbit IgG and/or TRITC Goat Anti-Mouse, IgG), BODIPY to stain lipid droplets and DAPI to stain the nuclei, for 2 hours at room temperature. Confocal imaging. A confocal laser-scanning microscope was used to image samples (Leica TCS SP8 Confocal Microscope; Buffalo Grove, IL). Adipocytes labeled by BODIPY and ITA7 labeled by Alexa Fluor 647 were imaged simultaneously in two channels, with Rhodamine-labeled endothelial tissue or TRITC CD68-labeled macrophages, and DAPI nuclei imaged in series. Confocal image stacks were obtained with a 63×oil immersion lens (NA 1.4). Laser intensity, confocal aperture, and photomultiplier gain were kept constant across samples. Image processing and analysis: Confocal image stacks were processed and analyzed using Leica LASX software version 3.5.2 (Wetzlar, Germany). The Alexa 647 and Rhodamine channels were thresholded and the intersection between both layers was quantified in order to characterize the colocalization between ITA7 and endothelial cells. In separate tissue, the colocalization between ITA7 and CD68 positive cells was also quantified. Using 3D images, the Alexa 647, Rhodamine or TRITC and intersection area per cell were calculated. cytoNet image analysis: cytoNet is a software accessible over the web that quantifies the spatial relationships in cell communities using principles of graph theory and evaluates the effect of cell-cell interactions on individual cell phenotypes (https://www.braininitiative.org/toolmakers/resources/cytonet/). Image files were segmented manually and provided as input to cytoNet. Because blood vessels have noncircular shapes, the minimum distance between object perimeters was computed in order to define graph edges. The resulting cell-to-cell perimeter distance and cells characteristics were analyzed in WT and KO SubQ WAT images. RNA isolation and quantitative RT-PCR. RNA from tissue and cells was isolated and purified using a Qiagen RNeasy Mini Kit (Valencia, CA) according to manufacturer guidelines. mRNA concentrations were measured using a Take3 Micro-Volume Plate (BioTek. Winooski, VT), then normalized to 150 ng of mRNA for conversion to cDNA. cDNA was synthetized using random hexamer primers and an iScript cDNA-synthesis kit (Biorad). The quantitative RT-PCR reactions were performed using the So Advanced™ Universal SYBER Green Supermix kit (Biorad) in a CFX96 Touch Real-Time PCR Detection System (BioRad, Hercules. CA). Fold expression levels were calculated using the 2^ΔΔCt method. Transcript levels were normalized to 18S ribosomal RNA levels in all experiments that used mice cells (FIGS. 3, 4, 7), or the GAPDH reference gene in experiments with human cells (FIG. 6). Primer (Table 1) specificity was tested by the assessing the melting curve. Western blot analysis. Cells were lysed using CelLytic (Sigma, St. Louis, MO) and tissue was lysed using RIPA buffer (EMD Millipore, Billerica, MA) and protease inhibitor cocktail (Fischer Scientific, Waltham, MA). Protein concentration was determined using the Bio-Rad DC protein assay (Bio-Rad Laboratories, Hercules. CA). […]
# ASCs = assay: Hydrogen peroxide (ROS-Glo H2O2) assay of ASCs differentiated on coated surfaces; format: cell-based, mice; conditions: compared to uncoated surface
Molecule,peak of efficacy on browning after administration [1],increase in Cox7A1 gene expression ([1]; 6 h of treatment) [fold],increase in UCP1 gene expression ([1]; 6 h of treatment),reduction in UCP1 relative to uncoated surfaces [2] [%],PGC1A levels ([2]; compared to uncoated surfaces),COX7A1 expression [2],ROS levels (ASCs)
"C=C[C@@]1(C)CC(=O)[C@]2(O)[C@@]3(C)[C@@H](O)CCC(C)(C)[C@@H]3[C@H](O)[C@H](OC(C)=O)[C@@]2(C)O1 [FSK, (13R)-1α,6β,9α-Trihydroxy-11-oxo-8α,13-epoxylabd-14-en-7β-yl acetate]",~ 6 h,1.5,~ 5 fold,,,,
CO1A1: Collagen 1A1 recombinant protein (R&D Systems) coated on culture plates,,,,71.7,significant decrease,significant decrease,
LAMA4: Laminin α4 recombinant protein (R&D Systems) coated on culture plates,,,,51.4,,significant decrease,higher ROS levels
B1,,,,91.16,,significant decrease,
